Source: ChEMBL document CHEMBL5226374, “Peniandranoids A-E: Meroterpenoids with Antiviral and Immunosuppressive Activity from a Penicillium sp” (J Nat Prod, 2023)
The source made the active and inactive calls. The calls are words filed in the database; no cut-off is given here.

Experiments:
[1] = Cytotoxicity against MDCK cells assessed as reduction in cell viability incubated for 48 hrs by CellTiter-Glo assay; type: toxicity, cell-based, Canis lupus familiaris; conditions: dog
[2] = test system: Respiratory syncytial virus; test: Antiviral activity against Respiratory syncytial virus infected in human HEp-2 cells assessed as inhibition of virus-induced cytopathic effect measured after 6 days by CellTiter-Glo assay; type: functional, organism-based; conditions: HEp-2, 144 h
Influenza A virus = test: Antiviral activity against Influenza A virus A/PR/8 (H1N1) infected in MDCK cells assessed as inhibition of viral growth incubated for 48 hrs by indirect immunofluorescence assay; type: functional, organism-based
[3] = Cytotoxicity against human HEp-2 cells assessed as reduction in cell viability incubated for 6 days by CellTiter-Glo assay; type: toxicity, cell-based; conditions: time 6 day
[4] = Selectivity index, ratio of CC50 for cytotoxicity against MDCK cells to EC50 for antiviral activity against Influenza A virus A/PR/8 (H1N1) infected in MDCK cells; type: toxicity, cell-based; conditions: dog, read-out: Ratio CC50/EC50
[5] = Selectivity index, ratio of CC50 for cytotoxicity against human HEp-2 cells to EC50 for antiviral activity against Respiratory syncytial virus infected in human HEp-2 cells; type: toxicity, cell-based; conditions: read-out: Ratio CC50/EC50
[6] = Cytotoxicity against African green monkey Vero cells incubated for 48 hrs by DAPI staining based assay; type: toxicity, cell-based; conditions: chlorocebus sabaeus
[7] = Selectivity index, ratio of CC50 for cytotoxicity against African green monkey Vero cells to EC50 for antiviral activity against Dengue virus 3 infected in african green monkey Vero cells; type: toxicity, cell-based; conditions: read-out: Ratio CC50/EC50
dengue virus type 3 = test: Antiviral activity against Dengue virus 3 infected in african green monkey Vero cells assessed as reduction in viral protein expression incubated for 48 hrs by indirect immunofluorescence assay; type: functional, organism-based
[8] = Cytotoxicity against BALB/c mouse Splenocyte assessed as reduction in cell viability incubated for 48 hrs by MTT assay; type: toxicity, cell-based; conditions: splenocytes
Splenocyte [9] = test: Immunosuppressive activity in BALB/c mouse splenocyte assessed as reduction in ConA-induced mouse T-lymphocytes proliferation incubated for 48 hrs by MTT assay; type: functional, cell-based
[10] = Selectivity index, ratio of CC50 for cytotoxicity in BALB/c mouse splenocytes to EC50 for immunosuppressive activity in BALB/c mouse splenocytes assessed as reduction in ConA-induced mouse T-lymphocytes proliferation; type: toxicity, cell-based; conditions: read-out: Ratio CC50/EC50
[11] = Selectivity index, ratio of CC50 for cytotoxicity in BALB/c mouse splenocytes to EC50 for immunosuppressive activity in BALB/c mouse splenocytes assessed as reduction in LPS-induced mouse B-lymphocytes proliferation; type: toxicity, cell-based; conditions: read-out: Ratio CC50/EC50
Splenocyte [12] = test: Immunosuppressive activity in BALB/c mouse splenocytes assessed as reduction in LPS-induced mouse B-lymphocytes proliferation incubated for 48 hrs by MTT assay; type: functional, cell-based
HCT-116 = test: Cytotoxicity against human HCT-116 cells assessed as inhibition of cell growth by MTT assay; type: functional, cell-based
L02 = test: Cytotoxicity against human L02 cells assessed as inhibition of cell growth by MTT assay; type: toxicity, cell-based
HT-29 = test: Cytotoxicity against human HT-29 cells assessed as inhibition of cell growth by MTT assay; type: functional, cell-based
MCF7 = test: Cytotoxicity against human MCF7 cells assessed as inhibition of cell growth by MTT assay; type: functional, cell-based
HeLa = test: Cytotoxicity against human HeLa cells assessed as inhibition of cell growth by MTT assay; type: functional, cell-based
A549 = test: Cytotoxicity against human A549 cells assessed as inhibition of cell growth by MTT assay; type: functional, cell-based

SMILES | CC50 at 48 h [1] | EC50 [2] [µM] | EC50 (Influenza A virus) | CC50 at 144 h [3] | selectivity ratio [4] | selectivity ratio [5] | CC50 at 48 h [6] | selectivity ratio [7] | EC50 (dengue virus type 3) | CC50 at 48 h [8] [µM] | EC50 (Splenocyte [9]) [µM] | selectivity ratio [10] | selectivity ratio [11] | EC50 (Splenocyte [12]) [µM] | Activity (HCT-116) | Activity (L02) | Activity (HT-29) | Activity (MCF7) | Activity (HeLa) | Activity (A549)
NC(=O)c1ncn([C@@H]2O[C@H](CO)[C@@H](O)[C@H]2O)n1 [RIBAVIRIN] | > 300 µM | 5.4 | 4.2 µM | 95 µM | > 71 | 18 |  |  |  |  |  |  |  |  |  |  |  |  |  | 
C#C[C@@]1(O)[C@H](O)[C@@H](CO)O[C@H]1n1ccc2c(N)ncnc21 |  |  |  |  |  |  | 74 µM | 67 | 1.1 µM |  |  |  |  |  |  |  |  |  |  | 
CC/C=C/C=C/[C@@]1(C)OC(C[C@@H](C)[C@]2(C)C(=O)[C@]3(C)C(C)=C[C@H]4[C@]5(C=O)CC[C@H](OC(C)=O)C(C)(C)[C@H]5CC[C@]4(C)[C@]3(C(=O)OC)C2=O)=C(C(=O)OC)C1=O |  |  |  |  |  |  |  |  |  | 26 | 23 | 1.1 | 3.5 | 7.5 |  |  |  |  |  | 
COC(=O)[C@@]12C(=O)[C@](C)(C(=O)c3cc(OC)c(O)c(O)c3C(C)=O)C(=O)[C@]1(C)C(C)=C[C@H]1[C@]3(C)CC[C@H](OC(C)=O)C(C)(C)[C@H]3CC[C@@]12C |  |  |  |  |  |  |  |  |  | 21 | 11 | 1.9 | 2.4 | 8.8 | inactive | Non-Toxic | inactive | inactive | inactive | inactive
COC(=O)[C@@]12C(=O)[C@](C)(Cc3c(O)c(C)cc(C(C)=O)c3O)C(=O)[C@]1(C)C(C)=C[C@H]1[C@]3(C=O)CC[C@H](OC(C)=O)C(C)(C)[C@H]3CC[C@@]12C | > 500 µg/mL |  | 19 µg/mL | 43 µg/mL | > 26 |  | 73 µg/mL | < 1 | > 100 µg/mL | > 50 | 19 | > 2.6 |  | > 50 | inactive | Non-Toxic | inactive | inactive | inactive | inactive
COC(=O)[C@@]12C(=O)[C@](C)(Cc3c(O)c(C)cc(C(C)=O)c3O)C(=O)[C@]1(C)C(C)=C[C@H]1[C@]3(CO)CC[C@H](OC(C)=O)C(C)(C)[C@H]3CC[C@@]12C |  |  |  |  |  |  |  |  |  | > 50 | > 50 |  | > 1 | 50 | inactive | Non-Toxic | inactive | inactive | inactive | inactive
COc1c(C)c2c(c(O)c1C/C=C(\C)CCC(=O)OCCN1CCOCC1)C(=O)OC2 [MYCOPHENOLATE MOFETIL] |  |  |  |  |  |  |  |  |  |  |  |  |  | 0.48 |  |  |  |  |  | 
CC/C=C/C=C/[C@@]1(C)OC(C[C@H](C)[C@]2(C)C(=O)[C@]3(C)C(C)=C[C@H]4[C@]5(C=O)CC[C@H](OC(C)=O)C(C)(C)[C@H]5CC[C@]4(C)[C@]3(C(=O)OC)C2=O)=C(C(=O)OC)C1=O |  |  |  |  |  |  |  |  |  | 19 | 8.5 | 2.2 | 2.2 | 8.5 |  |  |  |  |  | 
COC(=O)C1=C(C[C@@H](C)[C@]2(C)C(=O)[C@]3(C)C(C)=C[C@H]4[C@]5(C=O)CC[C@H](OC(C)=O)C(C)(C)[C@H]5CC[C@]4(C)[C@]3(C(=O)OC)C2=O)O[C@](C)(/C=C/C=C/[C@H](C)O)C1=O |  |  |  |  |  |  |  |  |  | > 50 | 27 | > 1.9 | > 4.2 | 12 | inactive | Non-Toxic | inactive | inactive | inactive | inactive
COC(=O)[C@@]12C(=O)[C@](C)(C(=O)c3cc(OC)c(O)c(O)c3C(C)=O)C(=O)[C@]1(C)C(C)=C[C@H]1[C@]3(C=O)CC[C@H](OC(C)=O)C(C)(C)[C@H]3CC[C@@]12C | 114 µg/mL |  | 14 µg/mL |  | 8.1 |  |  |  |  | 44 | 23 | 1.9 | 1.9 | 23 | inactive | Non-Toxic | inactive | inactive | inactive | inactive
